What was measured:
hERG potassium channel = hERG potassium channel (Homo sapiens (Human), UniProt Q12809); assay: hERG experiment to investigate potential cardiotoxicity (manual patch clamp, CHO hERG cells); type: cell-based; settings: whole cell patch clamp, tail current
Description: CHO hERG cells were grown in a culture dish containing the above medium, and cultured in an incubator at 37° C. and 5% CO2. CHO hERG cells were transferred to circular glass slides placed in the culture dish 24-48 hours prior to electrophysiological experiments and grown under the same medium and culture conditions as above. The density of CHO hERG cells on each circular slide shall meet the requirement that most of the cells are independent and individual.
2: Preparation of Experimental Solutions
3: Electrophysiological Recording System
A manual patch clamp system (HEKA EPC-10 signal amplifier and digital conversion system, purchased from HEKA Electronics, Germany) is used in this experiment for whole cell currents recording. A circular slide with CHO hERG cells grown on its surface was placed in an electrophysiology recording tank under an inverted microscope. The extracellular fluid was continuously perfused in the recording tank (about 1 ml per minute). A conventional whole cell patch clamp current recording technique was used in the experimental procedure. Unless otherwise specified, the experiments were carried out at conventional room temperature (about 25° C.). The cells were clamped at a voltage of −80 mV. The clamp voltage for cells was depolarized to +20 mV to activate the hERG potassium channel, and after 5 seconds, the cells were clamped to −50 mV to eliminate inactivation and generate a tail current. The tail current peak was used as the value of the hERG current magnitude. After the hERG potassium current recorded in the above step was stable under the continuous extracellular fluid perfusion in the recording tank, the drug to be tested can be perfused simultaneously and filled until the inhibitory effect of the drug on the hERG current reached a steady state. Generally, the superposition of the last three consecutive current recording lines was used as a criterion for judging whether or not the state was stable. After reaching a steady state, a wash with extracellular fluid perfusion was conducted until the hERG returned to that before the drug was added. One cell can be used to test one or more drugs, or multiple concentrations of the same drug, but need to be washed with an extracellular fluid between different drugs. Cisapride (purchased from Sigma) was used as a positive control in the experiment to ensure that the cells used were of normal quality.
4: Treatment and Dilution of Compounds
Prior to testing, the compounds were first diluted to 10, 3, 1, 0.3, and 0.1 mM stock solutions by a method of gradual dilution with DMSO, and were then diluted to the final M test concentration with extracellular fluids. The final concentration of DMSO in each of the other compound solutions was 0.1%, except that the DMSO concentration in the 30 μM compound test solution was 0.3%. The test concentration of the positive control (Cisapride) was 0.1 μM. All compound solutions were sonicated and shaken for a routine of 5 to 10 minutes to ensure complete dissolution of the compounds.
The test data were analyzed by HEKA Patchmaster, Microsoft Excel and data analysis software provided by Graphpad Prism.

DOHH2 cells = assay: Cell proliferation inhibition in vitro, DOHH2 cells by CTG assay; type: cell-based; settings: Homo sapiens, DOHH-2, 72 hours, read-out: Inhibitions of cell activities IC50 (nM) DOHH2
BTK kinase = BTK kinase (Homo sapiens (Human), UniProt Q06187); assay: In vitro assay for the inhibition of BTK kinase activity (Mobility-Shift Assay); type: biochemical
Outline: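 Fluorescently labelled peptide substrate converted by the kinase; substrate and phosphorylated product separated by charge on a microfluidic chip (mobility shift) and quantified separately. Results expressed as conversion rate; control wells received 100% DMSO.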

TMD8 cells = assay: Cell proliferation inhibition in vitro, TMD8 cells by CCK-8 method; type: cell-based; settings: Homo sapiens, 72 hours, read-out: Inhibitions of cell activities IC50 (nM) TMD8
[1] = Pharmacokinetic test in SD rats (oral 10 mg/kg, intravenous 1 mg/kg); type: in vivo; settings: SD rat; for F (po) %: oral 10 mg/kg vs intravenous 1 mg/kg; for clearance / half-life / AUC / Cmax / Tmax: male, plasma; for clearance / half-life: intravenous 1 mg/kg; for clearance: read-out: Cl (iv) (converted); for half-life: read-out: T½ (iv) h (converted); for AUC / Cmax / Tmax: oral 10 mg/kg
Description: SD rat, male (purchased from Shanghai Sippr-Bk Laboratory Animal Co., Ltd.), each tested compound was administered at a single dose to SD rats by oral administration (10 mg/kg, 3 rats in each group) and intravenous administration (1 mg/kg, 3 rats in each group) for the pharmacokinetic study. The tested compounds were dissolved using DMSO/[…] sodium chloride injection=5/95 (V/V), and vortexed for 1 minute, and after 1 minute of sonication, the compounds were formulated into solutions for administrations. Animals were fasted for 16-17 hours prior to oral administration and feeding was restored 4 hours after administration. After oral and intravenous administration, pharmacokinetic samples were collected from SD rats by jugular vein or cardiac puncture at the following time points: before administration, 5 minute, 15 minute, 30 minute, 1 hour, 2 hours, 4 hours, 6 hours, 8 hours and 24 hours after administration. 3 whole blood samples were collected at each time point, and the collected amount was about 0.2 mL, and the collected samples were anticoagulated by heparin sodium. After collection, the blood samples were immediately placed on ice and centrifuged to separate plasma within 30 minutes (centrifugation conditions: 8000 rpm, 6 minute, 2-8° C.). The collected plasma was stored at −70° C. prior to analysis. 50 μL of plasma sample was brought into a 1.5 mL centrifuge tube, 250 μL of internal standard solution (blank with no internal standard but the same volume of methanol added) was added, blended with vortex, centrifuged at 15000 rpm for 5 minutes. 200 μL of supernatant was taken and added to a 96-well sample plate and the samples were analyzed by LC-MS/MS.

OCI-LY10 cells = assay: Cell proliferation inhibition in vitro, OCI-ly10 cells by CCK-8 method; type: cell-based; settings: Homo sapiens, 72 hours, read-out: Inhibitions of cell activities IC50 (nM) OCI-LY10

hERG potassium channel, sequence (Q12809 whole entry): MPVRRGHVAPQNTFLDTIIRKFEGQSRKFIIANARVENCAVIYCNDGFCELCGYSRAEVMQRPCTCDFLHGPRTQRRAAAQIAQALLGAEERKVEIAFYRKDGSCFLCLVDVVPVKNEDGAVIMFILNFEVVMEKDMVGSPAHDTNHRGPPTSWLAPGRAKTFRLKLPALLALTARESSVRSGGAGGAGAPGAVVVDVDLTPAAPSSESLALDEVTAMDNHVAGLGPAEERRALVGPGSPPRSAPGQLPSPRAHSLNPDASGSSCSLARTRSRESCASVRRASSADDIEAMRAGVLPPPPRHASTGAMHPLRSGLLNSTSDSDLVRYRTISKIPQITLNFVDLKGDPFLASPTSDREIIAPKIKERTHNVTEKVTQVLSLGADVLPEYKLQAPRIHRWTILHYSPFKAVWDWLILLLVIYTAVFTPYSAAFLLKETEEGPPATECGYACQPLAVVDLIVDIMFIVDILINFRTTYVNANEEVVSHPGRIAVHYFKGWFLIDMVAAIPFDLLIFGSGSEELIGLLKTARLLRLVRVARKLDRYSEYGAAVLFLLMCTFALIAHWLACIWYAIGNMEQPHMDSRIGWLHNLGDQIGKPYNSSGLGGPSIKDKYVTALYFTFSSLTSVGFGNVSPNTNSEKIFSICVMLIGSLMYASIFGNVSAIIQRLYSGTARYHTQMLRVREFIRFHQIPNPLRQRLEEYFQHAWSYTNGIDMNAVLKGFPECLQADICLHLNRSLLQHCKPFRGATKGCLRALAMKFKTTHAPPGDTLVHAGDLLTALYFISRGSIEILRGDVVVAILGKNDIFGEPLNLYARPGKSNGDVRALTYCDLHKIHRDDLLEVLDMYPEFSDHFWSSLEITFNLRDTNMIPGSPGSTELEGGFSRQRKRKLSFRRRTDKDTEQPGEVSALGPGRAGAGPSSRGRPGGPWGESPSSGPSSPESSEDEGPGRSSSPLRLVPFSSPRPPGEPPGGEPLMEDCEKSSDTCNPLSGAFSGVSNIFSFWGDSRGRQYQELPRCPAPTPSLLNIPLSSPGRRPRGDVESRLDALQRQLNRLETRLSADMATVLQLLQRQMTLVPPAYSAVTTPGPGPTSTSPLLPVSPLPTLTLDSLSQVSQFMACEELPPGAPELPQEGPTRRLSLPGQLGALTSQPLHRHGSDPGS
BTK kinase, sequence (Q06187 whole entry): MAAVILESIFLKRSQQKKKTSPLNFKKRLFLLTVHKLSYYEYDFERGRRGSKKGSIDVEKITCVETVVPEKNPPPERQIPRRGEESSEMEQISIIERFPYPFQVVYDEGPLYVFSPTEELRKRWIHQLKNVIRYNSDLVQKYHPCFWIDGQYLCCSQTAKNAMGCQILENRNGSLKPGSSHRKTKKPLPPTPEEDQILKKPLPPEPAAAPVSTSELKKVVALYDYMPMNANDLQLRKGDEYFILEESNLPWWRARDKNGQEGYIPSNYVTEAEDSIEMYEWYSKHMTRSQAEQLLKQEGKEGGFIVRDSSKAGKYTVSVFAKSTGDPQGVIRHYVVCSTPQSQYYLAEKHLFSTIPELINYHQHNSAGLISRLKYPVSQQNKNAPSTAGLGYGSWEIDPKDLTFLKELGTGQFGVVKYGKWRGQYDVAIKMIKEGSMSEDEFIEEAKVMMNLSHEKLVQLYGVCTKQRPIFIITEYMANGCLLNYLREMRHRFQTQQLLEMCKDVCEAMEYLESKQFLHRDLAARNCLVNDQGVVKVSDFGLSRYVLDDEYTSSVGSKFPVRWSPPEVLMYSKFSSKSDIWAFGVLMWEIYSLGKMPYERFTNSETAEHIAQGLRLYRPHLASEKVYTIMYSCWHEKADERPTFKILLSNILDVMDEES

| Structure (SMILES) | IC50 (hERG potassium channel) | IC50 (DOHH2 cells) | IC50 (BTK kinase) | IC50 (TMD8 cells) | F (po) % [1] | clearance [1] | half-life [1] | AUC [1] | Cmax [1] | Tmax [1] | IC50 (OCI-LY10 cells) |
| --- | --- | --- | --- | --- | --- | --- | --- | --- | --- | --- | --- |
| C=CC(=O)N1[C@@H]2CC[C@@H](C2)[C@H]1c1nc(-c2ccc(C(=O)Nc3ccccn3)cc2)c2c(N)nccn12 [Example 22, 4-(3-((1R,3S,4S)-2-acryloyl-2-azabicyclo[2.2.1]heptan-3-yl)-8-aminoimidazo[1,5-a]pyrazin-1-yl)-N-(pyridin-2-yl)benzamide] | > 30000 nM | 182 nM | 3.3 nM | 4.2 nM | 36.56% | 3.51 L/h/kg | 36 min | 1.04 µg·h/mL | 1.16 µg/mL | 15 min | 0.38 nM |
| CC#CC(=O)N1C2CC[C@@H](C2)C1c1nc(-c2ccc(C(=O)Nc3cc(C(F)(F)F)ccn3)cc2)c2c(N)nccn12 (some centres unmarked) [Example 47] | > 30000 nM | 172 nM | 5.2 nM | 4.6 nM | 21.89% | 2.28 L/h/kg | 18 min | 0.971 µg·h/mL | 1.12 µg/mL | 15 min | 0.41 nM |
| C=CC(=O)N1C[C@H]2[C@@H]([C@H]1c1nc(-c3ccc(C(=O)Nc4ccccn4)cc3)c3c(N)nccn13)C2(C)C [Example 5] | > 30000 nM | 175 nM | 21 nM | 3.6 nM | 20.64% | 7.28 L/h/kg | 7.8 min | 0.278 µg·h/mL | 0.303 µg/mL | 6 min | 0.21 nM |
| C=CC(=O)N1C2CCC1(c1nc(-c3ccc(C(=O)Nc4ccccn4)cc3)c3c(N)nccn13)COC2 (centres unmarked) [Example 11] | > 30000 nM | 133 nM | 2.6 nM | 1.5 nM | 34.59% | 2.19 L/h/kg | 28.2 min | 1.58 µg·h/mL | 1.61 µg/mL | 19.8 min | 1.8 nM |

— patent US10793576B2, “Compound used as Bruton's tyrosine kinase inhibitor and preparation method and application thereof” (Chengdu Brilliant Pharmaceutical Co., LTD., priority 2017, dated 2020)
